Measurements as given in ChEMBL document CHEMBL5050844 (2019).

Legend:
[1] = Induction of anti-CD3/CD28 antibodies-stimulated human T cell activation at 1 uM assessed fold increase in IL-2 secretion measured by ELISA assay; type: functional, T cell line
[2] = Induction of anti-CD3/CD28 antibodies-stimulated human T cell activation at 0.3 uM assessed fold increase in IL-2 secretion measured by ELISA assay; type: functional, T cell line
[3] = Induction of anti-CD3/CD28 antibodies-stimulated human T cell activation at 4 uM assessed fold increase in CD25 expression measured by ELISA assay; type: functional, T cell line
[4] = Induction of anti-CD3/CD28 antibodies-stimulated human T cell activation at 1 uM assessed fold increase in CD25 expression measured by ELISA assay; type: functional, T cell line
[5] = Induction of anti-CD3/CD28 antibodies-stimulated human CD8+ T cell activation at 10 uM assessed fold increase in CD69 expression measured by flow cytometry analysis; type: functional, T cell line
[6] = Induction of anti-CD3 antibodies-stimulated human CD8+ T cell activation at 1.11 uM assessed fold increase in cell proliferation measured by flow cytometry analysis; type: functional, T cell line; further: reference of the scale not given here
[7] = Induction of anti-CD3/CD28 antibodies-stimulated human T cell activation at 10 uM assessed fold increase in GM-CSF secretion measured by ELISA assay; type: functional, T cell line
[8] = Induction of anti-CD3/CD28 antibodies-stimulated human T cell activation at 1.11 uM assessed fold increase in GM-CSF secretion measured by ELISA assay; type: functional, T cell line
[9] = Induction of anti-CD3/CD28 antibodies-stimulated human T cell activation at 1.11 uM assessed fold increase in TNF-alpha secretion measured by ELISA assay; type: functional, T cell line
[10] = Induction of anti-CD3 antibodies-stimulated human T cell activation at 10 uM assessed fold increase in TNF-alpha secretion measured by ELISA assay; type: functional, T cell line; further: reference of the scale not given here
[11] = Induction of allogenic human T cell activation at 3 uM assessed fold increase in cell proliferation; type: functional, T cell line
[12] = Induction of anti-CD3 antibodies-stimulated human exhausted T cell activation assessed fold increase in IFN-gamma secretion measured by ELISA assay; type: functional, T cell line; further: reference of the scale not given here
[13] = Induction of anti-CD3 antibodies-stimulated human exhausted T cell activation assessed fold increase in GM-CSF secretion measured by ELISA assay; type: functional, T cell line; further: reference of the scale not given here
[14] = Induction of anti-CD3 antibodies-stimulated human exhausted CD4+ T cell activation assessed fold increase in CTLA4 expression measured by flow cytometry analysis; type: functional, T cell line; further: reference of the scale not given here
[15] = Induction of anti-CD3 antibodies-stimulated human CD4+ T cell activation in immunocompetent mouse assessed fold increase in CD25 expression at 90 mg/kg, ip administered twice a day; type: functional; further: reference of the scale not given here
[16] = Induction of anti-CD3 antibodies-stimulated human CD8+ T cell activation in immunocompetent mouse assessed fold increase in CD25 expression at 90 mg/kg, ip administered thrice a day; type: functional; further: reference of the scale not given here
[17] = Induction of activation of human CD56+ CD3- NK cells co-cultured with human K562 cells in 5:1 ratio and assessed as increase in IFN-gamma secretion at 10 uM measured by ELISA assay; type: functional, Natural killer cell
[18] = Induction of activation of human CD56+ CD3- NK cells co-cultured with human K562 cells in 5:1 ratio and assessed as increase in IFN-gamma secretion at 1 uM measured by ELISA assay; type: functional, Natural killer cell
[19] = Induction of activation of human CD56+ CD3- NK cells co-cultured with human K562 cells in 1:1 ratio and assessed as increase in IFN-gamma secretion at 1 uM measured by ELISA assay; type: functional, Natural killer cell
[20] = Induction of activation of human CD56+ CD3- NK cells co-cultured with human K562 cells in 5:1 ratio and assessed as increase in TNF-alpha secretion at 10 uM measured by ELISA assay; type: functional, Natural killer cell
[21] = Induction of activation of human CD56+ CD3- NK cells co-cultured with human K562 cells in 5:1 ratio and assessed as increase in TNF-alpha secretion at 1 uM measured by ELISA assay; type: functional, Natural killer cell
[22] = Induction of activation of human CD56+ CD3- NK cells co-cultured with human K562 cells in 1:1 ratio and assessed as increase in TNF-alpha secretion at 1 uM measured by ELISA assay; type: functional, Natural killer cell
[23] = Induction of activation of human CD56+ CD3- NK cells co-cultured with human K562 cells in 5:1 ratio and assessed as increase in MIP1beta secretion at 10 uM measured by ELISA assay; type: functional, Natural killer cell
[24] = Induction of activation of human CD56+ CD3- NK cells co-cultured with human K562 cells in 5:1 ratio and assessed as increase in MIP1beta secretion at 1 uM measured by ELISA assay; type: functional, Natural killer cell
[25] = Induction of activation of human CD56+ CD3- NK cells co-cultured with human K562 cells in 1:1 ratio and assessed as increase in MIP1beta secretion at 10 uM measured by ELISA assay; type: functional, Natural killer cell
[26] = Induction of activation of human CD56+ CD3- NK cells co-cultured with human K562 cells in 1:1 ratio and assessed as increase in MIP1beta secretion at 1 uM measured by ELISA assay; type: functional, Natural killer cell
[27] = Induction of activation of human CD56+ CD3- NK cells co-cultured with human K562 cells in 1:1 ratio and assessed as increase in IFN-gamma secretion at 0.625 uM measured by ELISA assay; type: functional, Natural killer cell

Row | Structure (SMILES) | fold change (FC) [1] | fold change (FC) [2] | fold change (FC) [3] | fold change (FC) [4] | fold change (FC) [5] | fold change (FC) [6] | fold change (FC) [11] | fold change (FC) [12] | fold change (FC) [13] | fold change (FC) [14] | fold change (FC) [15] | fold change (FC) [16] | fold change (FC) [17] | fold change (FC) [18] | fold change (FC) [19] | fold change (FC) [20] | fold change (FC) [21] | fold change (FC) [22] | fold change (FC) [23] | fold change (FC) [24] | further results
1 | C[C@H](Sc1nncn1C)c1cccc(NC(=O)c2cccc(C(F)(F)F)n2)c1 | 2.51 | 1.01 | >=1.76 | 1.31 | <=1.2 | <=2 | <=2 | <=1.4 | 1.41 | <=1.4 | 1 | 1.51 | 2.01 | 1.01 | 1.01 | 2.01 | 1.01 | 1.01 | 1.01 | <=1 | fold change (FC) [7]: 2.01; fold change (FC) [8]: 1.51; fold change (FC) [9]: 1.51; fold change (FC) [10]: 1.51; fold change (FC) [25]: 1.01; fold change (FC) [26]: 1.01; fold change (FC) [27]: <=1
2 | C[C@@H](Sc1nncn1C)c1cccc(NC(=O)c2cccc(C(F)(F)F)n2)c1 | 1.01 | 1.01 | 1.01 | 1.01 | 1.201 | 3.01 | <=2 | <=1.4 | <=1.4 | <=1.4 | 1.51 | 1 | 1.01 | <=1 | <=1 | <=1 | <=1 | 1.01 | 1.01 | <=1 | fold change (FC) [25]: 1.01; fold change (FC) [26]: 1.01; fold change (FC) [27]: <=1
